Entries after “also recorded” stand apart in the source; their conditions may differ.
How the values were obtained:
Assay type in all cases: cell-based
[1] = test system: human WS1 fibroblast cells; experiment: Senolytic activity on doxorubicin-induced senescent WS1 fibroblasts (crystal violet survival)
Protocol: (§1) The successful conversion to the senescent cell phenotype was confirmed by morphological changes (flattening and cell enlargement) and positivity for lysosomal beta-galactosidase (β-GAL). The SA-β-GAL (senescence-associated β-GAL) senescence assay was performed with the SA-β-Gal Staining Kit (Cell Signaling Technology, Inc., Danvers, MA). Briefly, after fixation with […] for 15 min at room temperature, senescent cells were quantified by calculating the percentage of SA-β-GAL positive (blue stained) cells present in culture by examining 200 cells per well with the phase contrast microscope EVOS XL Cell Imaging System (Thermo Fisher; objective, 40X).
Senolytic activity on senescent human cells (in 96-well plates) was evaluated after specific treatments (for 72 h), including vehicle (DMSO; negative control), quercetin (Que; positive control) or different compounds according to the ‘invention bearing identification codes as fully illustrated also in patent application WO 2019/008537 A1, filed on May 7, 2017 in the name of Vera Salus Ricerca SrI (FIGS. 1, 2 and 3) from page 91 to page 106 and in the relative Figures. At the end of the treatments, cell survival was quantified by crystal violet staining. Briefly, cells were fixed with paraformaldehyde (4%) in PBS for 20 min, washed (2X in distilled water) and stained with 1% crystal violet (for 20 min). After further washing with water (3X), 100 μl of acetic acid (10%) were added per well and the absorbance (λ=590 nm) measured with a Synergy spectrophotometer (AHSI). Each experiment was carried out in quadruplicate and repeated at least three times, on three different days. Senolytic activity was expressed as % of senescent cells eliminated with respect to the control condition (DMSO). Results were presented as means±SEM (standard error of mean) and related analyzes were performed with GraphPadPrism® 6.0 software (CA, USA).
In a first step, the senolytic activities of the compounds according to the invention were investigated in human WS1 fibroblast cells (normal fibroblasts of cutaneous origin, ATCC® CRL-1502™). WS1 cell senescence was induced with 100 nM doxorubicin (24 h) and 12 days of recovery, while the senolytic activity was quantified after treatments with vehicle (DMSO), quercetin (Que, 20 μM), quercetin (20 μM) plus dasatinib (DAS, 200 nM; other positive control) or 18 distinct compounds according to the invention used at a concentration of 20 μM, alone (FIG. 1a) or in the presence of 200 nM dasatinib (FIG. 1b).

[2] = test system: human intestinal epithelium cells HCT116; experiment: Senolytic activity on doxorubicin-induced senescent HCT116 cells (crystal violet survival); conditions: senescent HCT116, 1-60 μM, 72 h (FIG. 2a)
Protocol: as §1
(§2) Senolytic activity on senescent human cells (in 96-well plates) was evaluated after specific treatments (for 72 h), including vehicle (DMSO; negative control), quercetin (Que; positive control) or different compounds according to the ‘invention bearing identification codes as fully illustrated also in patent application WO 2019/008537 A1, filed on May 7, 2017 in the name of Vera Salus Ricerca SrI (FIGS. 1, 2 and 3) from page 91 to page 106 and in the relative Figures. At the end of the treatments, cell survival was quantified by crystal violet staining. […] After further washing with water (3X), 100 μl of acetic acid (10%) were added per well and the absorbance (λ=590 nm) measured with a Synergy spectrophotometer (AHSI). […]

[3] = test system: human renal epithelial cells 786-0; experiment: Senolytic activity on doxorubicin-induced senescent 786-0 cells (crystal violet survival); conditions: senescent 786-0, 1-60 μM, 72 h (FIG. 2b)
Protocol: as §1, §2

[4] = test system: human pancreatic epithelial cells PANC-1; experiment: Senolytic activity on doxorubicin-induced senescent PANC-1 cells (crystal violet survival); conditions: senescent PANC-1, 1-60 μM, 72 h (FIG. 3a)
Protocol: as §1, §2

[5] = test system: human hepatic epithelial cells HepG2; experiment: Senolytic activity on doxorubicin-induced senescent HepG2 cells (crystal violet survival); conditions: senescent HepG2, 1-60 μM, 72 h (FIG. 3b)
Protocol: as §1, §2

[6] = test system: human lung epithelium cells A549; experiment: Senolytic activity on doxorubicin-induced senescent A549 cells (crystal violet survival); conditions: senescent A549, 1-60 μM, 72 h (FIG. 3c)
Protocol: as §1, §2

For `COc1ccc(-c2ccc(C(=O)NCCOCCOc3c(-c4ccc(O)c(O)c4)oc4cc(O)cc(O)c4c3=O)cc2)cc1` [29g], the “senolytic effect relative to that of quercetin” value ([1]; senescent WS1, 20 μM alone vs quercetin 20 μM, 72 h (FIG. 1a)) was ~3 times, the “senolytic effect in words, compared with the other compounds / treatments” value ([1]; senescent WS1, 20 μM alone, 72 h (FIG. 1a)) was “maximum senolytic effects; also recorded: higher senolytic effect than all the other compounds” and the “senolytic effect of compound alone compared with the combination quercetin plus dasatinib” value ([1]; senescent WS1, compound 20 μM alone vs quercetin 20 μM + dasatinib 200 nM, 72 h) was “greater than the combination of quercetin plus dasatinib”. For the same compound, the “senolytic effect (% of senescent cells eliminated with respect to DMSO control)” value ([1]; senescent WS1, compound 20 μM alone, 72 h (FIG. 1a)) was ~60%, the “senolytic action compared with quercetin plus dasatinib” value ([1]; senescent WS1, compound 20 μM in the presence of 200 nM dasatinib vs quercetin 20 μM + dasatinib 200 nM, 72 h (FIG. 1b)) was “more effective” and the “senolytic activity compared with quercetin” value [2] was “significantly higher than quercetin”. For the same compound, the “senolytic activity compared with quercetin” value [3] was “significantly higher than quercetin”, the “senolytic activity compared with quercetin” value [4] was “significantly higher than quercetin” and the “senolytic activity compared with quercetin” value [5] was “significantly higher than quercetin”. The “senolytic activity compared with quercetin” value [6] was “significantly higher than quercetin”.

Reference: US20240041820A1, “SENOTHERAPEUTIC COMPOUND” (BIONEXA S.R.L., priority 2020, published 2024)
